Patent US20040106216A1, “Method of measuring drug-metabolizing enzyme activity, method of evaluating inhibition of drug-metabolizing enzyme activity, and composition for these methods” (Toyo Boseki Kabushiki Kaisha, priority 2002, published 2004)
Positions count from the first letter of the chain named.

Tests used:
[1] = test system: Pseudomonas-derived 17β-hydroxysteroid dehydrogenase; assay: Inhibition of 17β-hydroxysteroid dehydrogenase, estrone substrate, estradiol enzyme immunoassay; format: biochemical; details: 0-20 μM final concentration, FIG. 8
[2] = molecular target: human cytochrome P450 CYP2C9 (359Leu) (Homo sapiens, UniProt P11712, I359L); details: 30 μM dibenzylfluorescein; 0-1.2 μM final concentration; FIG. 20
Experimental: (§1) Purified anti-fluorescein antibodies obtained using as the antigen a protein cross-linked using the X position of fluorescein were diluted with 50 mM carbonic acid buffer (pH 9.6) to a concentration of 1 μg/ml (antibody adsorption liquid), and 100 μL per well was poured into Corning Costar microtiter plates (polystyrene 96-well type). The surfaces were then sealed, and the plates left overnight at 4° C. The following day the antibody adsorption liquid was removed, and each well washed 3 times with 200 μL of 10 mM phosphoric acid buffer (pH 7.2, containing 150 mM NaCl). After washing, using 10 mM phosphoric acid buffer (pH 7.2, containing 150 mM NaCl: phosphoric acid buffer 1) as the base, each well was filled with 200 μL of a blocking solution containing 0.2% casein and 10% sucrose. After being filled with the blocking liquid the plates were left overnight at 4° C., and the following day the blocking liquid was removed and vacuum drying applied for 16 hours. The vacuum-dried plates were sealed in storage bags under reduced pressure, and stored at 4° C. prior to the following measurements.
(§2) A system expressing human cytochrome P450 CYP2C9 was constructed according to the methods of Goldstein et al (Goldstein J. A. et al, Biochemistry Vol. 33 pp 1743-1752 (1994)). A single nucleotide mutation (A→C) replacing isoleucine at 359 position with leucine was then introduced by ordinary methods. Two types of enzyme preparations, human cytochrome P450 CYP2C9 (359Ile) and (359Leu), were prepared by methods described in the literature and used in the following experiment.
(§3) The two human cytochrome P450 CYP2C9 preparations were diluted with 100 mM phosphoric acid buffer (pH 7.2, containing 0.1% BSA: phosphoric acid buffer 2), and concentrations sequences prepared. […]

[3] = molecular target: human cytochrome P450 CYP2C9 (359Ile) (Homo sapiens, UniProt P11712)
Experimental: as §1, §2, §3

[4] = molecular target: T1, pig cytochrome P450 CYP19 (133Met) (Sus scrofa, UniProt P79430, I133M); assay: Inhibition of pig cytochrome P450 CYP19 (133Met), testosterone substrate, estradiol enzyme immunoassay; format: biochemical; details: 62.5 μM testosterone; 0-3.2 μM final concentration; FIG. 16
T1 construct: made in house
T1 sequence (P79430 1-503 I133M): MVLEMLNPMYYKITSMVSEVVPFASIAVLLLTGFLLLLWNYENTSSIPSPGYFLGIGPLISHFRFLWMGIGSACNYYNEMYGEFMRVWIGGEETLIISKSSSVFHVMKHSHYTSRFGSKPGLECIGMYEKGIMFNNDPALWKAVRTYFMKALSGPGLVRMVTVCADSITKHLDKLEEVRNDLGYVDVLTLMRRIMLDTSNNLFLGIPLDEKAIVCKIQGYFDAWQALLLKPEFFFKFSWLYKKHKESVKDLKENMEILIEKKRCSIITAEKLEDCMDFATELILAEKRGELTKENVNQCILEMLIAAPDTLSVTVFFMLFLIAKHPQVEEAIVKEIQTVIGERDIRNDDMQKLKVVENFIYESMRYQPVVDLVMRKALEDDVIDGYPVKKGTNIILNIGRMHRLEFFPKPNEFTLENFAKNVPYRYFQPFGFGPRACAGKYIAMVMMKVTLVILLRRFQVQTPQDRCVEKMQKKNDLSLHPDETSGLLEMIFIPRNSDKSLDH
Experimental: as §1, with “Purified anti-estradiol” for “Purified anti-fluorescein”, “the 3rd” for “the X”, “of estradiol” for “of fluorescein”, “diluted in” for “diluted with”, “10% saccharose.” for “10% sucrose.”
(§4) A placental system expressing pig cytochrome P450 CYP19 was prepared according to the methods described in Mol. Endocrinol. Vol. 16, pp 1456-1468 (2002), and a mutation introduced replacing isoleucine 133 with methionine or alanine according to ordinary methods. […]

[5] = molecular target: T2, pig cytochrome P450 CYP19 (133Ile) (Sus scrofa, UniProt P79430); assay: Inhibition of pig cytochrome P450 CYP19 (133Ile), testosterone substrate, estradiol enzyme immunoassay; format: biochemical
T2 construct: made in house
T2 sequence (P79430 1-503): T1 sequence (P79430 1-503 I133M) with M133I
Experimental: as §1, with “Purified anti-estradiol” for “Purified anti-fluorescein”, “the 3rd” for “the X”, “of estradiol” for “of fluorescein”, “diluted in” for “diluted with”, “10% saccharose.” for “10% sucrose.”
as §4

[6] = molecular target: T3, human cytochrome P450 CYP19 (Homo sapiens, UniProt P11511); assay: Inhibition of human cytochrome P450 CYP19 (aromatase), testosterone substrate, estradiol enzyme immunoassay; format: biochemical; details: 62.5 μM testosterone, 20 minutes at 37° C.; α-naphthoflavone 0-3.2 μM, aminoglutethimide 0-9 μM final concentration; FIG. 6, 7
T3 construct: purchased BD Science (Gentest)
T3 sequence (P11511 1-503): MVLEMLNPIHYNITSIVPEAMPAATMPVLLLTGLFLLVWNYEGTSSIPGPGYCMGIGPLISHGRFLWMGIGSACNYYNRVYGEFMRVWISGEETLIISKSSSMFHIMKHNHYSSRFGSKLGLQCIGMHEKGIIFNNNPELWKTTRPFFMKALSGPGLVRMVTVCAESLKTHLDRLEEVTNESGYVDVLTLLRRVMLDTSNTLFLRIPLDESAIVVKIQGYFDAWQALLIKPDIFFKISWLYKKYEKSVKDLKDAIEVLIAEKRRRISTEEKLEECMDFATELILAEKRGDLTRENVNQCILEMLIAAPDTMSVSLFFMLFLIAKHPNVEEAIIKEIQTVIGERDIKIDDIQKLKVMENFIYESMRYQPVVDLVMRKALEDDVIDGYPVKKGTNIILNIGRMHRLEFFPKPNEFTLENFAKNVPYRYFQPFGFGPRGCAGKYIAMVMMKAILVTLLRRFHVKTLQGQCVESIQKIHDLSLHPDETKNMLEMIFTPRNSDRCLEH
Experimental: as §1, with “The” for “Purified anti-fluorescein antibodies obtained using as the antigen a protein cross-linked using the X position of fluorescein were diluted with 50 mM carbonic acid buffer (pH 9.6) to a concentration of 1 μg/ml (antibody adsorption liquid), and 100 μL per well was poured into Corning Costar microtiter plates (polystyrene 96-well type). The”

human cytochrome P450 CYP2C9 (359Ile), sequence (P11712 whole entry): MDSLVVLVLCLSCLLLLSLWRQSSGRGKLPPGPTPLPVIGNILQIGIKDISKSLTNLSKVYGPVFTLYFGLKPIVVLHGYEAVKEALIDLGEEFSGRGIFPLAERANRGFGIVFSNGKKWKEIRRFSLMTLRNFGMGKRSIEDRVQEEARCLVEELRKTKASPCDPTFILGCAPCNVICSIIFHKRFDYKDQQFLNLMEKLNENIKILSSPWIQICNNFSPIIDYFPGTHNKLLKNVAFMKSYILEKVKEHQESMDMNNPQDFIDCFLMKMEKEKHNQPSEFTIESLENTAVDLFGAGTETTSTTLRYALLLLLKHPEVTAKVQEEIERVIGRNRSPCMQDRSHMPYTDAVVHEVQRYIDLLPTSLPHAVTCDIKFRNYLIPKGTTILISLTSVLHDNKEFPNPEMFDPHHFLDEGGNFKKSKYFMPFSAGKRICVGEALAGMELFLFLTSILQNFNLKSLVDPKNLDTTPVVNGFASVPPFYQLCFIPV
human cytochrome P450 CYP2C9 (359Leu), sequence (P11712 whole entry I359L): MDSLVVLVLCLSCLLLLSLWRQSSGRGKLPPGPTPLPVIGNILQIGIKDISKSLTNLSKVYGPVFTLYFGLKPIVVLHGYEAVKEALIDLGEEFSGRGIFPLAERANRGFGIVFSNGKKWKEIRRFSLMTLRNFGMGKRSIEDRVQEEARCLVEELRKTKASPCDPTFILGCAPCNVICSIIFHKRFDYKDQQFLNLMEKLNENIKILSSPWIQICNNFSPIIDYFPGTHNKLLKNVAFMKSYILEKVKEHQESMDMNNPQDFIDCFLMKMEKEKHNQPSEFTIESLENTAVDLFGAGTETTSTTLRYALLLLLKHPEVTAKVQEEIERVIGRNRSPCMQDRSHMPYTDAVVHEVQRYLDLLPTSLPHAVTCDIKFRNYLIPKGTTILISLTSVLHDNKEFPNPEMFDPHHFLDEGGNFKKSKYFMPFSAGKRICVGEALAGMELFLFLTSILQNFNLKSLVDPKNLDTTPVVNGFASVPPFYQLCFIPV

SMILES: O=c1c(-c2ccc(O)cc2)coc2cc(O)cc(O)c12 [genistein]
- inhibition of 17β-hydroxysteroid dehydrogenase (relationship between solution concentration and absorbance at 450 nm) [1]: the stronger the inhibition of 17β-hydroxysteroid dehydrogenase

SMILES: Nc1ccc(S(=O)(=O)Nc2ccnn2-c2ccccc2)cc1 [sulfaphenazole]
- inhibition of human cytochrome P450 CYP2C9 (359Leu) (concentration vs absorbance at 450 nm) [2]: the greater the inhibition of the two types of human cytochrome P450 CYP2C9
- inhibition of human cytochrome P450 CYP2C9 (359Ile) (concentration vs absorbance at 450 nm) ([3]; 30 μM dibenzylfluorescein, 0-1.2 μM final concentration, FIG. 19): the greater the inhibition of the two types of human cytochrome P450 CYP2C9
- difference between inhibition-dose curves of the two enzyme preparations ([3]; human CYP2C9 (359Ile) versus (359Leu), FIGS. 19 and 20): obvious differences between the sulfaphenazole inhibition-dose curves

SMILES: O=c1cc(-c2ccccc2)oc2c1ccc1ccccc12 [α-naphthoflavone]
- inhibition of pig cytochrome P450 CYP19 (133Met) (concentration vs absorbance at 450 nm) [4]: the greater the inhibition of pig cytochrome P450 CYP19
- inhibition of pig cytochrome P450 CYP19 (133Ile) (concentration vs absorbance at 450 nm) ([5]; 62.5 μM testosterone, 0-3.2 μM final concentration, FIG. 15): the greater the inhibition of pig cytochrome P450 CYP19
- difference in degree of inhibition between preparation (133Ile) and preparation (133Met) ([5]; pig CYP19 (133Ile) versus (133Met), FIGS. 15 and 16): the degree of inhibition differed greatly
- inhibition of cytochrome P450 CYP19 (relationship between solution concentration and absorbance at 450 nm) [6]: the greater the inhibition of cytochrome P450 CYP19
